The subject of test [1] is Secretion of IL10 by OCI-LY3 ABC-DLBCL cells. Kind of test: Human IL10 Mesoscale assay (OCI-LY3). It counts as cell-based. The following applies: read-out: Human IL10 Mesoscale assay (OCI-LY3). Here is the method:
(§1) NFKB signaling regulates the secretion of multiple cytokines, including IL6 and IL10. Secretion of the cytokines IL6 and IL10 by TMD8 or OCI-LY3 ABC-DLBCL cells was measured using a mesoscale assay.
(§2) Cell passage number should not exceed 30. Cells should be kept between 0.5-2.5 million cells per mL during culturing and cells should be supplemented every 2-3 days with fresh 50 µM beta-mercaptoenthanol. No beta-mercaptoethanol was used during the mesoscale assay.
(§3) DMSO control wells were used to determine the maximum signal (High Control (HC)). […] Compounds and cells were incubated for 24 h at 37° C. and 5% CO2 (assay volume is 150 μL). After 24 h of incubation 50 μL of the supernatant was transferred to a MSD plate (V-Plex Proinflammation Panel 1 (human) kit, Mesoscale (MSD)) and incubated for 2 h with vigorous shaking (600 rpm) at room temperature. Following incubation, plates were washed 3× with PBS+0.05% Tween-20 and 25 μL detection antibody solution (IL6 & IL10 antibodies in diluent 3 (MSD)) was added per well followed by 2 h of incubation with vigorous shaking (600 rpm) at room temperature. After 3× washes with PBS+0.05% Tween-20, plates were incubated with 150 μL 2× Read Buffer T and read on SECTOR imager.

The test system of test [2] is Secretion of IL6 by OCI-LY3 ABC-DLBCL cells. Kind of test: Human IL6 Mesoscale assay (OCI-LY3). Type of test: cell-based. The following applies: read-out: Human IL6 Mesoscale assay (OCI-LY3). Here is the method: as §1, §2, §3
Test [3] has as its target T1, full-length MALT1 protein (Strep-MALT1(1-824)-His) (Homo sapiens, UniProt Q9UDY8).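 Also: fluorogenic LRSR-AMC substrate cleavage by MALT1, 50 min compound preincubation then 4 h reaction at RT, 11-point dilution from 30 µM, scaled between enzyme-free and untreated enzyme controls.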
T1 sequence (Q9UDY8 1-824): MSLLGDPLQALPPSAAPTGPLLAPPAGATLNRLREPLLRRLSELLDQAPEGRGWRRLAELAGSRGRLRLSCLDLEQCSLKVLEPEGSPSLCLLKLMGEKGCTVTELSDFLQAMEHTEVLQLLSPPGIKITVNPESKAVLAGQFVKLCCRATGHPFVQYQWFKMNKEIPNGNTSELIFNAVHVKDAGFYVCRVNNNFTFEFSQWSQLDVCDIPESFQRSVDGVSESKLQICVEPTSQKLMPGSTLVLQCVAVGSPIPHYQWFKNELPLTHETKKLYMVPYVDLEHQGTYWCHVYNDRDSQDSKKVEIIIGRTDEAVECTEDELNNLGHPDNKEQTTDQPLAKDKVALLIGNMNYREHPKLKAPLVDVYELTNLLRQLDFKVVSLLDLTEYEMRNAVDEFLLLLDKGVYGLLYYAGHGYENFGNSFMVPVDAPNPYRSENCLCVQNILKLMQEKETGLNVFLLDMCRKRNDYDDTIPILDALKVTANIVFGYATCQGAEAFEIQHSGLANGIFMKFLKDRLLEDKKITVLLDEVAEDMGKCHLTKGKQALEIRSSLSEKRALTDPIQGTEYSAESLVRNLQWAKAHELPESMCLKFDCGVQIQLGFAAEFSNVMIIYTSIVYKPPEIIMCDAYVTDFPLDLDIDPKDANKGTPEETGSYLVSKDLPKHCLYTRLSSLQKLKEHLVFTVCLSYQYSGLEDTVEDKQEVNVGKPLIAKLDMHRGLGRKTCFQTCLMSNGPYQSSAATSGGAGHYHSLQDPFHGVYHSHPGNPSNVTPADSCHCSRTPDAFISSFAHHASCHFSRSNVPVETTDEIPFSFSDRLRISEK
Kind of test: biochemical.

Setting [4] is: OCI-LY3 cells, 24 h incubation, supernatant, MSD V-Plex.

pIC50: −log10 of the molar value. Where two headings read alike, the source gives them in different places.

In the case of `N#Cc1ccc(-n2ncc(C(=O)Nc3cnc(-n4nccn4)c(C#N)c3)c2C(F)(F)F)nc1N` [Cpd 139, 1-(6-Amino-5-cyanopyridin-2-yl)-N-(5-cyano-6-(2H-1,2,3-triazol-2-yl)pyridin-3-yl)-5-(trifluoromethyl)-1H-pyrazole-4-carboxamide], the pIC50 in test [1] (setting [4]) was 7.12; in test [2] (setting [4]) it was 7.13; in test [3] it was 7.59.

In the case of `N#Cc1ccc(-n2ncc(C(=O)Nc3cnc(-n4nccn4)c(Cl)c3)c2C(F)(F)F)nc1N` [Cpd 140, 1-(6-amino-5-cyanopyridin-2-yl)-N-(5-chloro-6-(2H-1,2,3-triazol-2-yl)pyridin-3-yl)-5-(trifluoromethyl)-1H-pyrazole-4-carboxamide], the pIC50 was 6.91 in test [1] (setting [4]), 6.88 in test [2] (setting [4]) and 7.24 in test [3].

As for `Cc1ccc(N)nc1-n1ncc(C(=O)Nc2cnc(-n3nccn3)c(C#N)c2)c1C(F)(F)F` [Cpd 141, 1-(6-amino-3-methylpyridin-2-yl)-N-(5-cyano-6-(2H-1,2,3-triazol-2-yl)pyridin-3-yl)-5-(trifluoromethyl)-1H-pyrazole-4-carboxamide], the values for the pIC50 in test [1] (setting [4]), in test [2] (setting [4]) and in test [3] were 6.39, 6.37 and 7.00, respectively.

For the molecule `Cc1cnc(N)cc1-n1ncc(C(=O)Nc2cnc(-n3nccn3)c(C#N)c2)c1C(F)(F)F` [Cpd 142, 1-(2-amino-5-methylpyridin-4-yl)-N-(5-cyano-6-(2H-1,2,3-triazol-2-yl)pyridin-3-yl)-5-(trifluoromethyl)-1H-pyrazole-4-carboxamide], the pIC50 was 6.45 in test [1] (setting [4]), 6.17 in test [2] (setting [4]) and 7.66 in test [3].

As to `Cc1c(-n2ncc(C(=O)Nc3cnc(-n4nccn4)c(C#N)c3)c2C(F)(F)F)ccnc1N` [Cpd 143, 1-(2-amino-3-methylpyridin-4-yl)-N-(5-cyano-6-(2H-1,2,3-triazol-2-yl)pyridin-3-yl)-5-(trifluoromethyl)-1H-pyrazole-4-carboxamide], the pIC50 is 6.21 in test [1] (OCI-Ly3, 24 h); 5.98 in test [2] (OCI-Ly3, 24 h); 6.96 in test [3].

With `N#Cc1cc(NC(=O)c2cnn(-c3ccc(Cl)c(N)n3)c2C(F)(F)F)cnc1-n1nccn1` [Cpd 144, 1-(6-amino-5-chloropyridin-2-yl)-N-(5-cyano-6-(2H-1,2,3-triazol-2-yl)pyridin-3-yl)-5-(trifluoromethyl)-1H-pyrazole-4-carboxamide], the pIC50 in test [1] (OCI-Ly3, 24 h) was 7.59; in test [2] (OCI-Ly3, 24 h) it was 7.34; in test [3], 7.46.

As for `Cc1cc(F)c(N)nc1-n1ncc(C(=O)Nc2cnc(-n3nccn3)c(C#N)c2)c1C(F)(F)F` [Cpd 145, 1-(6-amino-5-fluoro-3-methylpyridin-2-yl)-N-(5-cyano-6-(2H-1,2,3-triazol-2-yl)pyridin-3-yl)-5-(trifluoromethyl)-1H-pyrazole-4-carboxamide], the pIC50 in test [1] (OCI-Ly3, 24 h) was 7.74; in test [2] (OCI-Ly3, 24 h), 7.77; in test [3] it was 7.49.

For `Cc1cc(F)c(N)nc1-n1ncc(C(=O)Nc2cnc(-n3nccn3)c(Cl)c2)c1C(F)(F)F` [Cpd 146, 1-(6-amino-5-fluoro-3-methylpyridin-2-yl)-N-(5-chloro-6-(2H-1,2,3-triazol-2-yl)pyridin-3-yl)-5-(trifluoromethyl)-1H-pyrazole-4-carboxamide], the pIC50 is 6.80 in test [1] (OCI-Ly3, 24 h); 6.71 in test [2] (OCI-Ly3, 24 h); 6.97 in test [3].

As for `Nc1nc(-n2ncc(C(=O)Nc3cnc(-n4nccn4)c(C(F)(F)F)c3)c2C(F)(F)F)ccc1F` [Cpd 147, N-(6-(2H-1,2,3-triazol-2-yl)-5-(trifluoromethyl)pyridin-3-yl)-1-(6-amino-5-fluoropyridin-2-yl)-5-(trifluoromethyl)-1H-pyrazole-4-carboxamide], the pIC50 was 7.40 in test [1] (OCI-Ly3, 24 h); 7.28 in test [2] (OCI-Ly3, 24 h); 7.16 in test [3].

Regarding `N#Cc1cc(NC(=O)c2cnn(-c3cc(N)ncc3Cl)c2C(F)(F)F)cnc1-n1nccn1` [Cpd 148, 1-(2-amino-5-chloropyridin-4-yl)-N-(5-cyano-6-(2H-1,2,3-triazol-2-yl)pyridin-3-yl)-5-(trifluoromethyl)-1H-pyrazole-4-carboxamide], the pIC50 in test [1] (OCI-Ly3, 24 h) is 6.58; in test [2] (OCI-Ly3, 24 h), 6.40; in test [3] it was 7.41.

Consider `Nc1cc(-n2ncc(C(=O)Nc3cnc(-n4nccn4)c(Cl)c3)c2C(F)(F)F)c(Cl)cn1` [Cpd 149, 1-(2-amino-5-chloropyridin-4-yl)-N-(5-chloro-6-(2H-1,2,3-triazol-2-yl)pyridin-3-yl)-5-(trifluoromethyl)-1H-pyrazole-4-carboxamide], for which the pIC50 in test [1] (setting [4]) was 6.81; in test [2] (setting [4]) it was 6.78; in test [3], 7.07.

As for `CNc1nc(-n2ncc(C(=O)Nc3cnc(-n4nccn4)c(C#N)c3)c2C(F)(F)F)ccc1F` [Cpd 150, N-(5-cyano-6-(2H-1,2,3-triazol-2-yl)pyridin-3-yl)-1-(5-fluoro-6-(methylamino)pyridin-2-yl)-5-(trifluoromethyl)-1H-pyrazole-4-carboxamide], the results for the pIC50 in test [1] (setting [4]), in test [2] (setting [4]) and in test [3] were 6.69, 6.57 and 7.00, respectively.

Consider `Cc1cnccc1-n1ncc(C(=O)Nc2cnc(-n3nccn3)c(Cl)c2)c1C(F)(F)F` [Cpd 158, N-(5-chloro-6-(2H-1,2,3-triazol-2-yl)pyridin-3-yl)-1-(3-methylpyridin-4-yl)-5-(trifluoromethyl)-1H-pyrazole-4-carboxamide], for which the pIC50 is 6.52 in test [1] (OCI-Ly3, 24 h); 6.56 in test [2] (OCI-Ly3, 24 h); 6.68 in test [3].

With `N#Cc1cc(NC(=O)c2cnn(-c3nc(Cl)ccc3Cl)c2C(F)(F)F)cnc1-n1nccn1` [Cpd 162, N-(5-cyano-6-(2H-1,2,3-triazol-2-yl)pyridin-3-yl)-1-(3,6-dichloropyridin-2-yl)-5-(trifluoromethyl)-1H-pyrazole-4-carboxamide], the pIC50 in test [1] (setting [4]) was 6.74; in test [2] (setting [4]), 6.60; in test [3], 6.52.

As for `Cc1cc(Cl)ccc1-n1ncc(C(=O)Nc2cnc(-n3nccn3)c(C#N)c2)c1C(F)(F)F` [Cpd 166, 1-(4-chloro-2-methylphenyl)-N-(5-cyano-6-(2H-1,2,3-triazol-2-yl)pyridin-3-yl)-5-(trifluoromethyl)-1H-pyrazole-4-carboxamide], the pIC50 in test [1] (setting [4]) is 7.11; in test [2] (setting [4]) it was 7.18; in test [3] it was 7.30.

Regarding `Cc1c(F)cccc1-n1ncc(C(=O)Nc2cnc(-n3nccn3)c(C#N)c2)c1C(F)(F)F` [Cpd 167, N-(5-cyano-6-(2H-1,2,3-triazol-2-yl)pyridin-3-yl)-1-(3-fluoro-2-methylphenyl)-5-(trifluoromethyl)-1H-pyrazole-4-carboxamide], the pIC50 in test [1] (setting [4]) was 7.39; in test [2] (setting [4]), 7.27; in test [3], 7.16.

`Cc1c(-n2ncc(C(=O)Nc3cnc(-n4nccn4)c(C#N)c3)c2C(F)(F)F)ccc(F)c1F` [Cpd 168, N-(5-cyano-6-(2H-1,2,3-triazol-2-yl)pyridin-3-yl)-1-(3,4-difluoro-2-methylphenyl)-5-(trifluoromethyl)-1H-pyrazole-4-carboxamide]: the values for the pIC50 in test [1] (setting [4]), in test [2] (setting [4]) and in test [3] were 7.34, 7.11 and 7.13, respectively.

For `N#Cc1ccc(-n2ncc(C(=O)Nc3cnc(-n4nccn4)c(C#N)c3)c2C(F)(F)F)cc1` [Cpd 169, N-(5-cyano-6-(2H-1,2,3-triazol-2-yl)pyridin-3-yl)-1-(4-cyanophenyl)-5-(trifluoromethyl)-1H-pyrazole-4-carboxamide], the pIC50 in test [1] (setting [4]) was 7.12; in test [2] (setting [4]) it was 6.98; in test [3], 7.04.

The values are drawn from patent US11040031B2, “Pyrazole derivatives as MALT1 inhibitors” (Janssen Pharmaceutica NV, priority 2018, dated 2021).
